Experimental data published in US20230121797A1, “A COMBINATION OF FLAVONOIDS AND SPHINGOSINE 1 PHOSPHATE LYASE INHIBITORS FOR THE TREATMENT OF LUNG INFLAMMATION” (AC BIOSCIENCE SA, priority 2020, published 2023).
Like-named read-outs stand apart in the source and are kept apart here.

What was measured:
circulating lymphocytes [1] = details: mice, cited from earlier work
circulating lymphocytes [2] = details: human subjects, cited from earlier work
Human neutrophils [3] = experiment: cytochrome c reduction rate (superoxide anion production) by activated neutrophils; assay type: cell-based; details: Resting neutrophils
Human neutrophils [4] = experiment: as above; assay type: cell-based
Experimental: Human neutrophils (2×10^6/mL) were incubated in HBSS with TNF-α at 37° C. for 25 minutes. Cells were stimulated with FMLP or PMA in the presence of cytochrome c (1.2 mg/mL final), and the optical density of the supernatants was determined by spectrophotometry (550 nm). For both PMA or FLMP as PMN activators, the IC50 for DHQ inhibition is around 8 μM.
When activated by opsonized bacteria, zymozan, FMLP (Formyl-Methionyl-Leucyl-Phenylalanine) or PMA (phorbolmyristate acetate), neutrophils undergo an oxidative burst resulting in the production of superoxide anion and subsequent hydrogen peroxide. The oxidative burst is mainly mediated by the NADPH oxidase activation, enzyme responsible of the superoxide anion production. […] This effect may come from either a direct anion superoxide scavenging or from the inhibition of NADPH oxidase activation.

PMN = experiment: oxygen consumption of triggered PMN; assay type: cell-based; details: triggered by PMA, FMLP and opsonized zymosan; data not shown
Human neutrophils [5] = experiment: ROS production by activated neutrophils, luminol chemiluminescence; assay type: cell-based; details: for inhibition of the ROS production: DHQ 1p M in the assay medium
Experimental: ROS production is measured using a chemiluminescence standard procedure: briefly, One hundred microliters of human neutrophils (4×10^6/mL) were primed with TNF-α at 37° C. for 25 minutes. 100 μL luminol (1 μM final concentration) and HRP (62.5 U/mL final concentration) in HBSS were added, and 150-μL aliquots were transferred to a prewarmed 96-well luminometer plate. Light emission was recorded by a Berthold MicroLumat Plus luminometer (Berthold Technologies, Hartfordshire, United Kingdom) (data output is in relative light units per second).
In order to further investigate the effect of DHQ on the oxidative burst of neutrophils, the measurement of the ROS production by chemoluminescence has been used which detect both surperoxide anion and hydrogen peroxide. […] This inhibitory effect can be considered as very efficient regarding the fact that the addition of 1p M in the assay medium results in around 80% inhibition of the ROS production in both experiments. The inhibition is not due to a ROS scavenging (as measured by cyt. C reduction) but due to the inhibition of NADPH oxidase.

neutrophils = experiment: activation of neutrophils stimulated by LPS or PMA; assay type: cell-based
Excerpt: Flavonoids are the largest group of naturally occurring polyphenolic compounds which have shown diverse biological activities depending of their chemical structure including anti-viral activities against a variety of viruses and potent immune-modulating and inflammatory activities. Among flavonoids, Quercetin, and its bioavailable derivatives such as isoquercetin, offer good perspectives to develop new therapeutics to treat cancer, viral infection and pathogenic inflammation (reviewed in Li et al, 2016). Flavonoids have potent anti-inflammatory activities.

[6] = tested on: LPS-stimulated whole blood; details: cited from earlier work

Compound: C/C(=N\O)c1nc([C@@H](O)[C@H](O)[C@H](O)CO)c[nH]1 [Compound 2]
- lymphopenia (circulating lymphocytes [1]; single oral doses lower than 30-100 mg/kg): minimal to non-statistically significant effect
- lymphopenia (circulating lymphocytes [1]; single oral doses of 30-100 mg/kg): 40-60%
- depletion of circulating lymphocytes (circulating lymphocytes [1]; single oral doses, 18 h after dosing): up to 60%
- tolerability (circulating lymphocytes [2]; all dose groups): generally well tolerated
- decrease in peripheral lymphocytes (circulating lymphocytes [2]; single ascending dose, highest administered dose of 180 mg): ~50%

Compound: O=C1c2c(O)cc(O)cc2O[C@H](c2ccc(O)c(O)c2)[C@H]1O [DHQ, Dihydroquercetin]
- cytochrome c reduction (anion superoxide production) (Human neutrophils [3]; DHQ 1 μM): 0.000 dDO/min
- cytochrome c reduction (anion superoxide production) (Human neutrophils [3]; DHQ 10 μM): 0.036 dDO/min
- cytochrome c reduction (anion superoxide production) (Human neutrophils [3]; DHQ 100 μM): 0.086 dDO/min
- cytochrome c reduction (anion superoxide production) (Human neutrophils [4]; +FMLP, DHQ 1 μM): 0.144 dDO/min
- cytochrome c reduction (anion superoxide production) (Human neutrophils [4]; +FMLP, DHQ 10 μM): 0.105 dDO/min
- cytochrome c reduction (anion superoxide production) (Human neutrophils [4]; +FMLP, DHQ 100 μM): 0.040 dDO/min
- cytochrome c reduction (anion superoxide production) (Human neutrophils [4]; +PMA, DHQ 1 μM): 0.110 dDO/min
- cytochrome c reduction (anion superoxide production) (Human neutrophils [4]; +PMA, DHQ 10 μM): 0.070 dDO/min
- cytochrome c reduction (anion superoxide production) (Human neutrophils [4]; +PMA, DHQ 100 μM): 0.021 dDO/min
- IC50 (Human neutrophils [4]; Homo sapiens, Neutrophil, PMA as PMN activator, neutrophils incubated with TNF-α, read-out: IC50 for DHQ inhibition of cytochrome c reduction rate (superoxide anion production)): ~8 µM
- oxygen consumption of PMN (PMN): strongly inhibits
- T. half (rise) (Human neutrophils [5]; FMLP 10−6 Ml, DHQ 1, 10 or 100 μM, concentration of samples 2-4 not given): 1.55
- inhibition of the ROS production (Human neutrophils [5]; neutrophils activated by FMLP): around 80%
- inhibition of the ROS production (Human neutrophils [5]; neutrophils activated by PMA): around 80%
- effect on the activation of neutrophils (neutrophils): strong inhibitory effect

Compound: O=c1c(O)c(-c2ccc(O)c(O)c2)oc2cc(O)cc(O)c12 [quercetin]
- effect on the activation of neutrophils (neutrophils): strong inhibitory effect
- production of the major inflammatory cytokines TNFα, IL-6, IL-8 and IL-10 [6]: decreases the production
